1 molecule from patent US6447997B1, “Gene coding for GADD153 as a clinical diagnostic and prognostic in cancer therapy” (Research Development Foundation, priority 1997, dated 2002) can be followed below.

pIC50: −log10 of the molar value.

What is called IC10 is the concentration needed for an effect of 10%. As usually defined, the pIC50 is −log10 of the IC50, conventionally taken in molar units. Usually IC70 stands for the concentration at which the effect reaches the 70% level.

One test deals with UMSCC10b cells. The experiment in a line: Sensitivity to cDDP in vitro, clonogenic assay. It is filed as cell-based, human. The note with it: parental cell line, 1 h exposure. The protocol: The sensitivity of the UMSCC10b cell line and its cDDP-resistant variants to cDDP was determined by clonogenic assay using a 1 h cDDP exposure. A single-cell suspension was plated into 60 mm tissue culture dishes (Corning) at 300 cells per dish in fresh medium. After incubation for 24 h at 37° C., cells had attached to the plates and cDDP was added to the cells and incubated for 1 h following which the cells were washed twice with phosphate-buffered saline and 5 ml of fresh medium was added. Cultures were incubated for an additional 13-15 days following which there were fixed with methanol, stained with Giemsa, and clusters of >50 cells were scored as colonies. cDDP-selected cells were cultured in drug-free media for 2 weeks before cDDP sensitivity was determined by clonogenic assay.

In a further test the test system is GADD153 mRNA. The experiment in a line: GADD153 mRNA level in UMSCC10b xenografts in nude mice after cDDP. It is filed as in vivo. The protocol:
The various aspects of the invention are also useful for xenografted tumors. Nude mice were inoculated s.c. with human UMSCC10b tumor cells, and then treated with cDDP (0, 10, 15, 30 or 50 mg/kg cDDP i.p.) when the tumors reached 1 ml in volume. FIG. 5a depicts the results obtained when tumors were harvested at 24 h after cDDP treatment. […] The time course of the change in message level in the xenografts was similar to that observed with in vitro exposure of the cells (FIG. 5b). Thus, GADD153 mRNA levels can be increased in vivo by cDDP doses around the maximum tolerated dose in this system (15-20 mg/kg cDDP).
UMSCC10b cells were injected subcutaneously over the shoulder of athymic (BALB/c nu/nu) female mice, 3-4 weeks of age (Harlan Sprague Dawley, Indianapolis, Ind.). The xenografts were allowed to grow until they reached approximately […] in volume, at which time cDDP treatment was initiated. […]
GADD153 message levels were quantified using a modification of the technique reported by Horikoshi et al (20). […] PCR products were separated on a 8 M (6%) acrylamide gel and analyzed using a Molecular Imaging System (BioRad, Hercules, Calif.). For each RNA sample to be analyzed, a series of PCR reactions was performed to generate a graph of the amount of PCR product as a function of input CDNA for both GADD153 and β-ACTIN. […]

Turning to `[NH2][Pt]([NH2])([Cl])[Cl]` [cDDP, cisplatin], in the test with UMSCC10b cells, the 10% effect concentration (IC10) was determined as 2 µM, the negative-log IC50 (pIC50) was 5.15 and the concentration for an effect of 70% (IC70) is 12 µM. The “time of return of GADD153 mRNA toward basal levels in vivo” value in the test on GADD153 mRNA (UMSCC10b xenografts after treatment) was at most 96 h. The “GADD153 mRNA levels in xenografts” value in the test with GADD153 mRNA (tumors harvested 24 h after cDDP i.p., 0-50 mg/kg) is “increased as a function of cDDP dose”.
